# According to ChEMBL document CHEMBL4251715, “Hepatoprotective Dibenzocyclooctadiene and Tetrahydrobenzocyclooctabenzofuranone Lignans from Kadsura longipedunculata” (2018):
# Test system: HepG2
# Test: Hepatoprotective activity against APAP-induced toxicity in human HepG2 cells assessed as cell survival rate at 10 uM after 48 hrs by MTT assay relative to control
# Type: functional
# Details: HepG2, 48 h, read-out: Survival
row,SMILES,viability at 10 µM [%]
1,COC1=C(OC)C(=O)[C@]23COc4c5c(cc(c42)[C@H](OC(=O)c2ccccc2)[C@H](C)[C@](C)(O)CC3=C1)OCO5,52.2
2,COC1=C(OC)C(=O)[C@]23COc4c5c(cc(c42)[C@H](OC(C)=O)[C@H](C)[C@H](C)CC3=C1)OCO5,50.2
3,COC(=O)c1cc(OC)c2c(c1-c1c(CO)cc(OC)c3c1OCO3)OCO2 [BICYCLOL],49
